# In US20220119399A1, “COMPOUNDS AND COMPOSITIONS THAT CAUSE MYCN AND/OR CMYC DEGRADATION AND METHODS OF USE THEREOF” (THE TRUSTEES OF COLUMBIA UNIVERSITY IN THE CITY OF NEW YORK, priority 2018, published 2022):
# Entries after “also recorded” stand apart in the source; their conditions may differ.
# What was measured:
# MYC targets gene set = assay: GSEA of Cancer Hallmarks gene sets from PLATE-Seq profiles; format: cell-based, human; details: SK-N-Be2 cells, 3.3 μM and 10 μM, 6 h and 24 h
# Excerpt: We next performed gene set analysis using PLATE-Seq expression profiling by binning transcripts according to the Cancer Hallmarks gene sets found at the molecular signatures database. Curated by the Broad Institute, these fifty hallmark pathway sets represent well defined cancer processes or states associated with cancer malignancies. […] Given that isopomiferin disrupted the MycN^AMP regulatory module, it was expected that this target would be suppressed by isopomiferin. We sought to understand how the compound is affecting cells by assessing whether any other pathways are affected by the compound. […] E2F […] regulators act in a feedback loop with MycN and also regulate cell cycle progression (Strieder and Lutz 2003; Li et al. 2014), so this is an interesting finding that will be further investigated. MycN enables cancer cells to evade the immune system by suppressing antigens that can act as immune attractants necessary for detection and destruction of cancer cells (Brandetti et al. 2017; Topper et al. 2017). It is possible that enrichment of the “Inflammatory Response” gene set is a result of desuppression of these targets as a result of MycN inhibition.
# We sought to investigate biological pathways affected by isopomiferin by performing pathway enrichment analysis on a set of 50 hallmarks of cancer. […]
# MYCN transcript = assay: RT-qPCR of MYCN transcript in SK-N-Be2 cells; format: cell-based, human; details: 15 μM, sampled 0, 3, 6, 9, 24 hrs
# Method: (§1) Reverse transcription quantitative polymerase chain reaction (RT-qPCR) was used to quantify transcript abundance of genes of interest. Total RNA was isolated from cells using the Qiaquick RNeasy isolation kit following manufacturer's instruction (QIAGEN). RNA quality and abundance was measured using a nanodrop spectrophotometer. A total of 2 μg RNA was used as a template for reverse transcription reactions. cDNA synthesis was performed using TaqMan reverse transcriptase following the manufacturer's instructions, using both oligod(T) and random hexamers as primers for RT reactions. RNAse treatment of cDNA removed any residual RNA in cDNA samples. cDNA samples were diluted 10-fold into nuclease-free dH2O, and used as the template for quantitative PCR reactions were performed in a Viia7 […] thermocycler using SYBR green and gene-specific primers (Table 1). qPCR reactions were performed using the Viia7 Real-Time PCR system (Applied Biosystems), and relative transcript abundance evaluated using the deltaCT method, using the GAPDH housekeeping gene as normalization control.
# pS6K = assay: S6K phosphorylation western blot in SK-N-Be2 cells; format: cell-based, human; details: 10 μM and 20 μM, 24 hours
# Excerpt: (§2) Membranes were blocked using Odyssey Blocking Buffer (LI-COR) for 1 hr at room temperature. […] Primary antibodies used in these studies include: MycN (CST; 1:500 dilution), Actin (SCBT; 1:2000 dil.), cMYC (CST; 1:500 dil.), pAKT (S473; CST; 1:500 dil.), AKT (CST; 1:2000), pP70 (T389; CST; 1:1000) P70 (CST; 1:1000).
# We then tested whether mTORC2 complex was disrupted by isopomiferin treatment. […] to enable translation. We tested whether phosphorylation of S6K was inhibited by isopomiferin by treating SK-N-Be2 cells to 10 μM and 20 μM isopomiferin for 24 hours and blotting for pS6K, using total S6K protein as a loading control. […] We then tested whether this was consistent across cell lines by performing a similar experiment in an NSCLC cell line, A549.
# MYC protein = assay: Western blot of MYC protein in SCLC lines NCI-H69 and NCI-H209; format: cell-based; details: NCI-H69 and NCI-H209, 24 h
# Excerpt: as §2
# [1] = tested on: PARP and caspase3 cleavage; assay: Western blot of apoptosis hallmarks (cleaved PARP, cleaved caspase 3); format: cell-based, human; details: SK-N-Be2 cells, 48 hrs
# Excerpt: as §2
# [2] = tested on: PLK1, LIN28B, and BMI1 transcripts; assay: qPCR of downstream targets of MycN (PLK1, LIN28B, BMI1) in SK-N-Be2 cells; format: cell-based, human; details: 10 μM, up to 24 h
# Method: as §1
# [3] = tested on: cancer cell lines and non-transformed cells; details: Darji et al. 2013; Son et al. 2007; cited from earlier work
# SK-N-Be2 cells = format: in vitro ADME, human; details: human, 20 μM
# Method: In brief, SK-N-Be2 cells were seeded at 400 k cells/well in 6 w plates and incubated overnight. The following day, compounds were added to wells at indicated concentrations, with DMSO-only control added to non-treated wells. Following treatment for the indicated time periods, cells were trypsinized, rinsed twice with cold PBS to remove media, pelleted by centrifugation, and frozen at −20° C. To extract compounds, frozen pellets were resuspended in 150 μL of acetonitrile, sonicated for 2′, and centrifuged at 1400×g for 75′ at 4° C. Supernatant was collected and analyzed by LC-MS using a system comprised of a Thermo Scientific Dionex Ultimate 3000 and a Bruker amaZon SL equipped with an electrospray ionization source controlled by a Bruker Hystar 3.2. Compounds were separated by injecting 20 μL of supernatant onto an Agilent Eclipse Plus C18 column (2.1×50 mm, […]) maintained at 20° C., with the flow rate set at 400 μL/min. Initial flow conditions were 60% solvent A (MilliQ H2O, 0.1% acetic acid), and 40% solvent B (HPLC-grade MeOH, 0.1% acetic acid). Solvent B was raised to 60% over 0.25 min and to 70% by 6.75 min. Solvent B was raised to 95% by 7 min and lowered back to 40% by 8 minutes; total run time was 9 min (Bos et al. 2019).
smiles,measurement,setting,value
CC1(C)C=Cc2c(c3c(c4c(=O)c(-c5ccc(O)c(O)c5)coc24)OC(C)(C)CC3)O1 [isopomiferin],"Cancer Hallmarks gene set enrichment (MYC Targets, E2F Targets, G2M Checkpoint)",MYC targets gene set,suppressed the MYC targets gene set; also recorded: suppressed by isopomiferin treatment in a time- and dose-dependent manner
same,MYCN transcript abundance (RT-qPCR),MYCN transcript,transcript abundance decreased in a time-dependent manner
same,phosphorylation of S6K (P70^S6K),pS6K,completely inhibited phosphorylation of S6K protein
same,phosphorylation of S6K (P70^S6K),pS6K; listed as Isopomiferin,inhibited phosphorylation of P70^S6K
same,MYC protein abundance in SCLC lines,MYC protein,suppressed MYC protein in both SCLC lines
CC(C)=CCc1c2c(c3occ(-c4ccc(O)c(O)c4)c(=O)c3c1O)C=CC(C)(C)O2 [pomiferin],induction of apoptosis (PARP and caspase3 cleavage),[1],more potent inducer of apoptosis than CX-4945
same,"transcript accumulation of PLK1, LIN28B, and BMI1",[2],inhibited the transcript accumulation of three downstream targets of MycN
same,potency in transformed cells relative to non-transformed cells,[3],> 10 fold
same,amount of compound detected in cell sample,SK-N-Be2 cells,~300 ng
